Drawing on US10047073B2, “Histone deacetylase inhibitors and compositions and methods of use thereof” (CHDI Foundation, Inc., priority 2015, dated 2018), this text covers IC50 for eleven molecules.

Test [1] deals with human catalytic domain HDAC4 protein (Homo sapiens (Human), UniProt P56524). The experiment in a line: Inhibition of HDAC4 catalytic domain, Boc-Lys(TFA)-AMC fluorogenic substrate. To be noted: read-out: HDAC4 Biochemical IC50. An excerpt:
Example 13: Analysis of Inhibition of HDAC4 with Class IIa Histone Deacetylase (HDAC) Inhibitors
The potency of Class IIa Histone Deacetylase (HDAC) inhibitors was quantified by measuring the Histone Deacetylase 4 (HDAC4) catalytic domain enzymatic activity using the fluorogenic substrate, Boc-Lys(TFA)-AMC. The substrate was deacetylated to Boc-Lys-AMC by HDAC4. […] The fluorescence of the sample was directly related to the histone deacetylase activity in the sample.
Serial dilutions of the HDAC inhibitors and control reference compound (1-(5-(3-((4-(1,3,4-oxadiazol-2-yl)phenoxy)methyl)-1,2,4-oxadiazol-5-yl)thiophen-2-yl)-2,2,2-trifluoroethanone) were made by first resuspending the lyophilized compound to a final concentration of 10 mM in 100% dimethyl sulfoxide (DMSO). Stocks of 60 μL aliquots of the 10 mM compound in DMSO were prepared and stored at −20° C. From one stock aliquot of each tested compound and the reference compound, a 16-point serial dilution was prepared according to Table 1 using a 125 μL 16-channel Matrix multi-channel pipette (Matrix Technologies Ltd).
2 μL (200×) of each diluted solution and each control (full activity: 100% DMSO alone or full inhibition 1 mM) was stamped into V-bottomed polypropylene 384-well compound plates using either the Bravo (384-well head from Agilent) or 12.5 μL 16-channel Matrix multi-channel pipette (Matrix Technologies Ltd). Each well with the 200× compound solution was diluted 1:20 by the addition of 38 μL assay buffer+DMSO (10.5% DMSO, 45 mM Tris-HCl, 123 mM NaCl, 2.4 mM KCl, and 0.9 mM MgCl2 at pH 8.0 and equilibrated to r.t.).
The HDAC4 catalytic domain enzyme was human catalytic domain HDAC4 protein (amino acids 648-1032) with a C-terminal 6× histidine tag, produced by BioFocus. A working solution of enzyme was prepared from a 500 μg/mL stock aliquot of HDAC4 catalytic domain (thawed on ice) diluted to 0.2 μg/mL with assay buffer (50 mM Tris-HCl, 137 mM NaCl, 2.7 mM KCl, and 1 mM MgCl2 at pH 8 and equilibrated to r.t.) just prior to the addition of the enzyme to the assay.
5× (50 μM) substrate was prepared just prior to the addition to the assay. A 1 mM substrate stock was made by diluting a 100 mM Boc-Lys(TFA)-AMC in DMSO solution 1:100 by adding it drop-wise to assay buffer (equilibrated to r.t.) while vortexing at slow speed to prevent precipitation. The 5× substrate was prepared by diluting the 1 mM substrate solution 1:20 by adding it drop-wise to assay buffer (equilibrated to r.t.) while vortexing at slow speed to prevent precipitation.
3× (30 μM) Developer/Stop Solution was prepared just prior to addition to the plate by diluting a stock solution of 10 mM reference compound 1:333 in 25 mg/mL trypsin (PAA Laboratories Ltd.) equilibrated to r.t.
5 μL of each solution of 1:20 diluted compound from above was transferred to a clear bottomed, black, 384-well assay plate using the Bravo or the Janus (384-well MDT head from Perkin Elmer). Using a 16-channel Matrix multi-channel pipette, 35 μL of the working solution of HDAC4 catalytic domain enzyme (0.2 μg/mL in assay buffer) was transferred to the assay plate. The assay was then started by adding 10 μL of 5× (50 μM) substrate to the assay plates using either the Bravo, Janus or 16-channel Matrix multi-channel pipette. The assay plate was then shaken for two minutes on an orbital shaker at 900 rpm (rotations per minute). Next the plate was incubated for 15 minutes at 37° C. The reaction was stopped by adding 25 μL of 3× (30 μM) developer/stop solution to the assay plates using either the Bravo, Janus or a 16-channel Matrix multi-channel pipette. Assay plates were then shaken for 5 minutes on an orbital shaker at 1200 rpm. Next, the assay plates were incubated at 37° C. for 1 hour in a tissue culture incubator. Finally, the fluorescence was measured (Excitation: 355 nm, Emission: 460 nm) using PerkinElmer EnVision in top read mode.

For test [2], the system named is cellular Class IIa HDAC activity in Jurkat E6-1 cells. The experiment in a line: Inhibition of cellular Class IIa HDAC activity, Cell (Lys-TFA) substrate. It is filed as cell-based. To be noted: Boc-Lys(TFA)-AMC. An excerpt: Example 17: Analysis of Inhibition of Cellular Class IIa HDAC Activity with Class IIa Histone Deacetylase (HDAC) Inhibitors: Cell (Lys-TFA) Substrate
The potency of Class IIa Histone Deacetylase (HDAC) inhibitors was quantified by measuring the cellular histone deacetylase enzymatic activity using the fluorogenic substrate, Boc-Lys(TFA)-AMC. After penetration in Jurkat E6-1 cells, the substrate was deacetylated to Boc-Lys-AMC. After cell lysis and cleavage by trypsin, the fluorophore AMC was released from the deacetylated substrate only. The fluorescence of the sample was directly related to the histone deacetylase activity in the sample.
Jurkat E6.1 cells were cultured according to standard cell culture protocols in Jurkat E6.1 Growth Media (RPMI without phenol red, 10% FBS, 10 mM HEPES, and 1 mM Sodium Pyruvate). Jurkat E6.1 cells were counted using a Coulter Counter and resuspended in Jurkat E6.1 growth media at a concentration of 75,000 cells/35 μL. 35 μL or 75,000 cells was seeded into Greiner microtitre assay plates. The plates were then incubated at 37° C. and 5% CO2 while other assay components were being prepared.
Serial dilutions of the HDAC inhibitors and control reference compound (1-(5-(3-((4-(1,3,4-oxadiazol-2-yl)phenoxy)methyl)-1,2,4-oxadiazol-5-yl)thiophen-2-yl)-2,2,2-trifluoroethanone) were made by first resuspending the lyophilized compound to a final concentration of 10 mM in 100% DMSO. Stocks of […] aliquots of the 10 mM compound in DMSO were prepared and stored at −20° C. From one stock aliquot of each tested compound and the reference compound, a 16-point serial dilution was prepared according to Table 1 using a 125 μL 16-channel Matrix multi-channel pipette.
2 μL (200×) of each diluted solution and each control (full activity: 100% DMSO alone or full inhibition 1 mM) was stamped into V-bottom polypropylene 384-well compound plates using either the Bravo, Janus, or 12.5 μL 16-channel Matrix multi-channel pipette. Each well with the 200× compound solution was diluted 1:20 by the addition of 38 μL Jurkat assay buffer+DMSO (9.5% DMSO, RPMI without phenol red, 0.09% FBS, 9 mM Hepes, and 0.9 mM Sodium Pyruvate equilibrated to r.t.)
5× (500 μM) substrate was prepared just prior to the addition to the assay. The 5× substrate was prepared by diluting a 100 mM Boc-Lys(TFA)-AMC in DMSO solution 1:200 by adding it drop-wise to Jurkat assay medium (RPMI without phenol red, 0.1% FBS, 10 mM Hepes, and 1 mM Sodium Pyruvate equilibrated to 37° C.) while vortexing at slow speed to prevent precipitation.
10 mL of 3× lysis buffer was prepared with 8.8 mL of 3× stock lysis buffer (50 mM Tris-HCl, pH 8.0, 137 mM NaCl, 2.7 mM KCl, 1 mM MgCl2, 1% Nonidet P40 Substitute equilibrated to r.t.) and 1.2 mL of 3 mg/mL Trypsin equilibrated to r.t.
5 μL of each solution of 1:20 diluted compound from above was transferred to the Greiner microtitre assay plates with 75,000 cells/well using the Bravo. Cells were then incubated for 2 hours at 37° C. and 5% CO2. The assay was then started by adding 10 μL of 5× (500 μM) substrate to the assay plate using either the Bravo or 16-channel Matrix multi-channel pipette. The cells were then incubated for 3 hours at 37° C. and 5% CO2. Next, 25 μL of 3× lysis buffer was added to each well using either the 125 μL 16 channel pipette or the Bravo. The assay plate was then incubated overnight (15-16 hours) at 37° C. and 5% CO2. The following day, the plates were shaken on an orbital shaker for 1 minute at 900 rpm. Finally the top read fluorescence (Excitation: 355 nm, Emission: 460 nm) was measured using PerkinElmer EnVision.

Test [3] has as its system cellular Class I HDAC activity in Jurkat E6-1 cells. Put plainly: Inhibition of cellular Class I HDAC activity, Cell (Lys-Ac) substrate. To be noted: Boc-Lys(Ac)-AMC. It is filed as cell-based. As to the method: Example 18: Analysis of Inhibition of Cellular Class I HDAC Activity with Class IIa Histone Deacetylase (HDAC) Inhibitors: Cell (Lys-Ac) Substrate
The Class I HDAC activity of Class IIa Histone Deacetylase (HDAC) inhibitors was quantified by measuring the cellular histone deacetylase enzymatic activity using the fluorogenic substrate, Boc-Lys(Ac)-AMC. This was performed according to the procedure in Example 17, using Boc-Lys(Ac)-AMC substrate in place of Boc-Lys(TFA)-AMC.

Where [4] appears, read: Homo sapiens, Jurkat E6.1, Jurkat E6.1 cells.

Counter-ions that a name gives are not always drawn.

Chain of human catalytic domain HDAC4 protein (P56524 648-1032): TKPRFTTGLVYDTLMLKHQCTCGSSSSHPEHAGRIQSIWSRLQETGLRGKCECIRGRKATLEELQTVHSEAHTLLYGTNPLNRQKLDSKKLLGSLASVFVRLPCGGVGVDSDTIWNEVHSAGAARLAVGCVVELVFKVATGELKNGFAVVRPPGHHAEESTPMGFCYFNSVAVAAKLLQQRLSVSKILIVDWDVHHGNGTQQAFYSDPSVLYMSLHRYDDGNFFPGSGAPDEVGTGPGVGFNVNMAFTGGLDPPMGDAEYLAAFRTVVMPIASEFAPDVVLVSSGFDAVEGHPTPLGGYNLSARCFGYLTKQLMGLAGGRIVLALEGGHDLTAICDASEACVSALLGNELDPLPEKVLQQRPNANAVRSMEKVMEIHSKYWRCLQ

Consider `O=C(NC1(CN2CCCC2C2CC2)CC1)c1ccc(-c2noc(C(F)(F)F)n2)cc1` (single isomer, unassigned) [Example 7, E2-(abs)-N-(1-((2-Cyclopropylpyrrolidin-1-yl)methyl)cyclopropyl)-4-(5-(trifluoromethyl)-1,2,4-oxadiazol-3-yl)benzamide], for which the IC50 – broadly, the midpoint of a concentration-inhibition curve – in test [1] was determined as 3 nM; in test [2] (Jurkat E6.1 cells), 14 nM; in test [3] (Jurkat E6.1 cells) it was 540 nM.
For `O=C(NC1(CN2CC3CCC(C3)C2)CC1)c1ccc(-c2noc(C(F)(F)F)n2)cc1` [Example 4, N-(1-(-3-Azabicyclo[3.2.1]octan-3-ylmethyl)cyclopropyl)-4-(5-(trifluoromethyl)-1,2,4-oxadiazol-3-yl)benzamide], the figures for the IC50 in test [2] (setting [4]) and in test [3] (setting [4]) were 690 nM and 7800 nM, respectively.
In the case of `C[C@H]1CCCN1CC1CC1NC(=O)c1ccc(-c2noc(C(F)(F)F)n2)cc1` (single isomer, unassigned) [Example 11], the IC50 in test [1] was found to be 230 nM; in test [2] (setting [4]) it was 1000 nM; in test [3] (setting [4]), 36600 nM.
On to `CC1(C)CCCN(CC2(NC(=O)c3ccc(-c4noc(C(F)(F)F)n4)cc3)CC2)C1` [Example 8, N-(1-((3,3-Dimethylpiperidin-1-yl)methyl)cyclopropyl)-4-(5-(trifluoromethyl)-1,2,4-oxadiazol-3-yl)benzamide formate], for which the IC50 in test [1] worked out at 30 nM; in test [2] (setting [4]), 45 nM; in test [3] (setting [4]), 2500 nM.
As to `CC1(C)CCCN(CC2(NC(=O)c3ccc(-c4noc(C(F)(F)F)n4)c(F)c3)CC2)C1` [Example 12, N-(1-((3,3-Dimethylpiperidin-1-yl)methyl)cyclopropyl)-3-fluoro-4-(5-(trifluoromethyl)-1,2,4-oxadiazol-3-yl)benzamide], the IC50 worked out at 76 nM in test [1], 312 nM in test [2] (setting [4]) and 15100 nM in test [3] (setting [4]).
The corresponding values for `O=C(NC1(CN2CCCC23COC3)CC1)c1ccc(-c2noc(C(F)(F)F)n2)cc1` [Example 3, N-(1-(2-Oxa-5-azaspiro[3.4]octan-5-ylmethyl)cyclopropyl)-4-(5-(trifluoromethyl)-1,2,4-oxadiazol-3-yl)benzamide] are 750 nM, 390 nM and 8600 nM.
On to `O=C(NC1(CN2CCC3(CC3)C2)CCC1)c1ccc(-c2noc(C(F)(F)F)n2)cc1` [Example 9, N-(1-(5-Azaspiro[2.4]heptan-5-ylmethyl)cyclobutyl)-4-(5-(trifluoromethyl)-1,2,4-oxadiazol-3-yl)benzamide], for which the results for the IC50 in test [1], in test [2] (setting [4]) and in test [3] (setting [4]) were 58 nM, 100 nM and 700 nM, respectively.
The corresponding values for `O=C(NC1(CN2CCC3(CC2)COC3)CC1)c1ccc(-c2noc(C(F)(F)F)n2)cc1` [Example 2, N-(1-(2-Oxa-7-azaspiro[3.5]nonan-7-ylmethyl)cyclopropyl)-4-(5-(trifluoromethyl)-1,2,4-oxadiazol-3-yl)benzamide] are 110 nM, 240 nM and 4900 nM.
The matching figures for `O=C(NC1(CN2CCCC23COC3)CCC1)c1ccc(-c2noc(C(F)(F)F)n2)cc1` [Example 10, N-(1-(2-Oxa-5-azaspiro[3.4]octan-5-ylmethyl)cyclobutyl)-4-(5-(trifluoromethyl)-1,2,4-oxadiazol-3-yl)benzamide]: 750 nM, 390 nM and 8600 nM.
As for `O=C(NC1(CN2CCCC2C2CC2)CC1)c1ccc(-c2noc(C(F)(F)F)n2)cc1` (single isomer, unassigned) [Example 6, E1-(abs)-N-(1-((2-Cyclopropylpyrrolidin-1-yl)methyl)cyclopropyl)-4-(5-(trifluoromethyl)-1,2,4-oxadiazol-3-yl)benzamide], the IC50 is 8 nM in test [1], 28 nM in test [2] (setting [4]) and 1500 nM in test [3] (Jurkat E6.1 cells).
For `O=C(NC1(CN2CCCC3(CC3)C2)CC1)c1ccc(-c2noc(C(F)(F)F)n2)cc1` [Example 1, N-(1-(5-Azaspiro[2.5]octan-5-ylmethyl)cyclopropyl)-4-(5-(trifluoromethyl)-1,2,4-oxadiazol-3-yl)benzamide], the IC50 in test [1] is 50 nM; in test [2] (setting [4]), 140 nM; in test [3] (setting [4]), 2600 nM.
